We go through 33 compounds from patent US9221834B2 (Merck Sharp & Dohme Corp., priority 2010, dated 2015).

The target of the assay is T1, recombinant CETP (rCETP) (Homo sapiens, UniProt P11597).
T1 sequence (P11597 18-493): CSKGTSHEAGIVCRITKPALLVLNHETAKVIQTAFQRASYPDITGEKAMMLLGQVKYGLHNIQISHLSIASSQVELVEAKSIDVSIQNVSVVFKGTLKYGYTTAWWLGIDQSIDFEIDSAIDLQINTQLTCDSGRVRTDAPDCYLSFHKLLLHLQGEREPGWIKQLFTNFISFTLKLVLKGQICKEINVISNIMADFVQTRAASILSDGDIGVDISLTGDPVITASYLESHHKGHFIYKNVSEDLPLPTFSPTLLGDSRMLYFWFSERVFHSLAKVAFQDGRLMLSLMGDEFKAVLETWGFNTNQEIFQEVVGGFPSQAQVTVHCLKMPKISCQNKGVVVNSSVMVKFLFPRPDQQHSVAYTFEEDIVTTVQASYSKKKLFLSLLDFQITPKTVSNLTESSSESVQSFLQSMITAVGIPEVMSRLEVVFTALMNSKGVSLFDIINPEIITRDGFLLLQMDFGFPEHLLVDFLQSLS
Kind of assay: RTA assay using recombinant CETP (2% RTA). The class given is biochemical. The conditions noted are these: RTA assay in 2% human serum; read-out: IC50. In outline: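 Compounds preincubated 1 h at 37 °C with assay cocktail (CETP buffer: 50 mM Tris pH 7.4, 100 mM NaCl, 1 mM EDTA; human HDL acceptor); transfer started with [3H]cholesteryl oleate- or [3H]triolein-labelled LDL, 60 min at 37 °C. LDL PEG-precipitated; supernatant counted by scintillation, blank-corrected; IC50 from 4-parameter sigmoidal fit of % inhibition vs DMSO control.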

Structures can show the parent of a compound that is named as a salt.

For `COc1ccc(CC#N)cc1-c1ccc(N2CCC2)nc1CN1C(=O)O[C@H](c2cc(C(F)(F)F)cc(C(F)(F)F)c2)[C@@H]1C` [Example 256, {3-[6-azetidin-1-yl-2-({(4S,5R)-5-[3,5-bis(trifluoromethyl)phenyl]-4-methyl-2-oxo-1,3-oxazolidin-3-yl}methyl)pyridin-3-yl]-4-methoxyphenyl}acetonitrile], the IC50 (in general, the midpoint of a concentration-inhibition curve) is 5 nM.

With `COc1ccc(-c2ccc(O)c(C(C)=O)c2)cc1-c1ccc(N2CCC2)nc1CN1C(=O)O[C@H](c2cc(C(F)(F)F)cc(C(F)(F)F)c2)[C@@H]1C` [Example 257, (4S,5R)-3-{[3-(3′-acetyl-4′-hydroxy-4-methoxybiphenyl-3-yl)-6-azetidin-1-ylpyridin-2-yl]methyl}-5-[3,5-bis(trifluoromethyl)phenyl]-4-methyl-1,3-oxazolidin-2-one], the IC50 stood at 90 nM.

Consider `COc1ccc(CO)cc1-c1ccc(N2CCC2)nc1CN1C(=O)O[C@H](c2cc(C(F)(F)F)cc(C(F)(F)F)c2)[C@@H]1C` [Example 258], for which the half-maximal inhibitory concentration (IC50) stood at 7 nM.

Turning to `COc1ccc(CCO)cc1-c1ccc(N2CCC2)nc1CN1C(=O)O[C@H](c2cc(C(F)(F)F)cc(C(F)(F)F)c2)[C@@H]1C` [Example 259, (4S,5R)-3-({6-azetidin-1-yl-3-[5-(2-hydroxyethyl)-2-methoxyphenyl]pyridin-2-yl}methyl)-5-[3,5-bis(trifluoromethyl)phenyl]-4-methyl-1,3-oxazolidin-2-one], the IC50 was 4 nM.

For `C[C@H]1[C@@H](c2cc(C(F)(F)F)cc(C(F)(F)F)c2)OC(=O)N1Cc1nc(N2CCC2)ccc1-c1cc(CCCO)ccc1OC1CC1` [Example 260], the IC50 is 12 nM.

Take `COCCCc1ccc(OC2CC2)c(-c2ccc(N3CCC3)nc2CN2C(=O)O[C@H](c3cc(C(F)(F)F)cc(C(F)(F)F)c3)[C@@H]2C)c1` [Example 261]: the concentration for half-maximal inhibition (IC50) is 42 nM.

As for `COc1ccc(CCCO)cc1-c1ccc(N2CCC2)nc1CN1C(=O)O[C@H](c2cc(C(F)(F)F)cc(C(F)(F)F)c2)[C@@H]1C` [Example 264, (4S,5R)-3-({6-azetidin-1-yl-3-[5-(3-hydroxypropy)-2-methoxyphenyl]pyridin-2-yl}methyl)-5-[3,5-bis(trifluoromethyl)phenyl]-4-methyl-1,3-oxazolidin-2-one], the half-maximal inhibitory concentration (IC50) stood at 2 nM.

In the case of `COc1ccc(Cc2nc[nH]n2)cc1-c1ccc(N2CCC2)nc1CN1C(=O)O[C@H](c2cc(C(F)(F)F)cc(C(F)(F)F)c2)[C@@H]1C` [Example 265], the IC50 was found to be 23 nM.

On to `COc1ccc(Cc2nn[nH]n2)cc1-c1ccc(N2CCC2)nc1CN1C(=O)O[C@H](c2cc(C(F)(F)F)cc(C(F)(F)F)c2)[C@@H]1C` [Example 266, (4S,5R)-3-({6-azetidin-1-yl-3-[2-methoxy-5-(2H-tetrazol-5-ylmethyl)phenyl]pyridin-2-yl}methyl)-5-[3,5-bis(trifluoromethyl)phenyl]-4-methyl-1,3-oxazolidin-2-one], for which the IC50 stood at 79 nM.

For `COc1ccc(Cc2ncc[nH]2)cc1-c1ccc(N2CCC2)nc1CN1C(=O)O[C@H](c2cc(C(F)(F)F)cc(C(F)(F)F)c2)[C@@H]1C` [Example 267, (4S,5R)-3-({6-azetidin-1-yl-3-[5-(1H-imidazol-2-ylmethyl)-2-methoxyphenyl]pyridin-2-yl}methyl)-5-[3,5-bis(trifluoromethyl)phenyl]-4-methyl-1,3-oxazolidin-2-one], the IC50 amounted to 67 nM.

Take `COc1ccc(CCc2ncc[nH]2)cc1-c1ccc(N2CCC2)nc1CN1C(=O)O[C@H](c2cc(C(F)(F)F)cc(C(F)(F)F)c2)[C@@H]1C` [Example 268]: the half-maximal inhibitory concentration (IC50) was 91 nM.

With `COc1ccc(CCc2n(C)cc[n+]2C)cc1-c1ccc(N2CCC2)nc1CN1C(=O)O[C@H](c2cc(C(F)(F)F)cc(C(F)(F)F)c2)[C@@H]1C` [Example 269, 2-(2-{3-[6-azetidin-1-yl-2-({(4S,5R)-5-[3,5-bis(trifluoromethyl)phenyl]-4-methyl-2-oxo-1,3-oxazolidin-3-yl}methyl)pyridin-3-yl]-4-methoxyphenyl}ethyl)-1,3-dimethyl-1H-imidazol-3-ium formate], the IC50 was found to be 175 nM.

With `COc1ccc(CCc2nc[nH]n2)cc1-c1ccc(N2CCC2)nc1CN1C(=O)O[C@H](c2cc(C(F)(F)F)cc(C(F)(F)F)c2)[C@@H]1C` [Example 270, (4S,5R)-3-[(6-azetidin-1-yl-3-{2-methoxy-5-[2-(1H-1,2,4-triazol-3-yl)ethyl]phenyl}pyridin-2-yl)methyl]-5-[3,5-bis(trifluoromethyl)phenyl]-4-methyl-1,3-oxazolidin-2-one], the IC50 was 7 nM.

Regarding `COc1ccc(CCC(=O)O)cc1-c1ccc(N2CCCCC2)nc1CN1C(=O)O[C@H](c2cc(C(F)(F)F)cc(C(F)(F)F)c2)[C@@H]1C` [Example 271, 3-{3-[2-({(4S,5R)-5-[3,5-bis(trifluoromethyl)phenyl]-4-methyl-2-oxo-1,3-oxazolidin-3-yl}methyl)-6-piperidin-1-ylpyridin-3-yl]-4-methoxyphenyl}propanoic acid], the IC50 came out at 96 nM.

Consider `COc1ccc([C@H]2CC[C@H](C(=O)O)CC2)cc1-c1cnc(N2CCC2)nc1CN1C(=O)O[C@H](c2cccc(C(F)(F)F)c2)[C@@H]1C` [Example 272], for which the half-inhibitory concentration (IC50) was found to be 165 nM.

For `COc1ccc(CCC(=O)O)cc1-c1cnc(N2CCC2)nc1CN1C(=O)O[C@H](c2cccc(C(F)(F)F)c2)[C@@H]1C` [Example 273], the IC50 was 2300 nM.

`COc1ccc(C2C[C@H]2C(=O)O)cc1-c1cnc(N2CCC2)nc1CN1C(=O)O[C@H](c2cccc(C(F)(F)F)c2)[C@@H]1C` (stereo partly drawn) [Example 274]: the half-maximal inhibitory concentration (IC50) is 1620 nM.

For `Cc1cc(C(=O)O)ccc1-c1cccc(-c2cnc(N3CCC3)nc2CN2C(=O)O[C@H](c3cccc(C(F)(F)F)c3)[C@@H]2C)c1` [Example 275], the IC50 was 605 nM.

For `Cc1cc(C(=O)O)ccc1-c1cc(-c2cnc(N3CCC3)nc2CN2C(=O)O[C@H](c3cccc(C(F)(F)F)c3)[C@@H]2C)ccc1F` [Example 276], the IC50 was 76 nM.

Consider `COc1cc(F)c(-c2ccc(C(=O)O)cc2C)cc1-c1cnc(N2CCC2)nc1CN1C(=O)O[C@H](c2ccc(F)cc2)[C@@H]1C` [Example 279], for which the IC50 was found to be 189 nM.

As for `C[C@H]1[C@@H](c2cc(C(F)(F)F)cc(C(F)(F)F)c2)OC(=O)N1Cc1nc(N2CCC2)ncc1-c1cc(CCC(=O)O)ccc1Cl` [Example 280], the IC50 worked out at 23 nM.

As for `COc1ccc([C@H]2CC[C@H](C(=O)O)CC2)cc1-c1ccc(N2CC(F)(F)C2)nc1CN1C(=O)O[C@H](c2cc(F)cc(C(F)(F)F)c2)[C@@H]1C` [Example 283, trans-4-{3-[6-(3,3-difluoroazetidin-1-yl)-2-({(4S,5R)-5-[3-fluoro-5-(trifluoromethyl)phenyl]-4-methyl-2-oxo-1,3-oxazolidin-3-yl}methyl)pyridin-3-yl]-4-methoxyphenyl}cyclohexanecarboxylic acid], the IC50 worked out at 9 nM.

With `COc1ccc(-n2ncc(C(=O)O)c2C(F)(F)F)cc1-c1c(C)cc(N2CCC2)nc1CN1C(=O)O[C@H](c2cc(C(F)(F)F)cc(C(F)(F)F)c2)[C@@H]1C` [Example 285], the IC50 is 4 nM.

For the compound `COc1c(F)cc(-c2ccc(C(=O)O)cc2C)cc1-c1c(C)cc(N2CCC2)nc1CN1C(=O)O[C@H](c2cc(C(F)(F)F)cc(C(F)(F)F)c2)[C@@H]1C` [Example 287], the IC50 came to 3 nM.

For `Cc1cc(C(=O)O)ccc1-c1cc(F)cc(-c2ccc(N3CCC3)nc2CN2C(=O)O[C@H](c3cc(C(F)(F)F)cc(C(F)(F)F)c3)[C@@H]2C)c1` [Example 288], the IC50 turned out to be 11 nM.

In the case of `COc1ccc(-c2ccc(C(=O)O)cc2C)cc1-c1ccc(N2CCC2)nc1CN1C(=O)O[C@H](c2cc(C(F)(F)F)cc(C(F)(F)F)c2)[C@@H]1C` [Example 289], the 50% inhibitory concentration (IC50) was determined as 7 nM.

Regarding `C[C@H]1[C@@H](c2cc(F)cc(C(F)(F)F)c2)OC(=O)N1Cc1nc(N2CC(F)(F)C2)ncc1-c1cc([C@H]2CC[C@H](C(=O)O)CC2)ccc1Cl` [Example 291], the half-inhibitory concentration (IC50) came to 49 nM.

For `COc1ccc([C@H]2CC[C@H](C(=O)O)CC2)cc1-c1c(C)cc(N2CCC2)nc1CN1C(=O)O[C@H](c2cc(F)cc(C(F)(F)F)c2)[C@@H]1C` [Example 292], the IC50 amounted to 7 nM.

Turning to `COc1ccc([C@H]2CC[C@H](C(=O)O)CC2)cc1-c1ccc(N2CC(F)(F)C2)nc1CN1C(=O)O[C@H](c2cc(C)cc(C(F)(F)F)c2)[C@@H]1C` [Example 293], the IC50 came out at 7 nM.

In the case of `COc1ccc([C@H]2CC[C@H](C(=O)O)CC2)cc1-c1ccc(N2CC(F)(F)C2)nc1CN1C(=O)O[C@H](c2cccc(OC(F)(F)F)c2)[C@@H]1C` [Example 294], the IC50 turned out to be 102 nM.

Take `COc1ccc([C@H]2C[C@H](C(=O)O)C2)cc1-c1ccc(N2CC(F)(F)C2)nc1CN1C(=O)O[C@H](c2cccc(OC(F)(F)F)c2)[C@@H]1C` [Example 295]: the IC50 is 114 nM.

Turning to `COc1cc(F)c(-c2ccc(C(=O)O)cc2C)cc1-c1ccc(N2CC(F)(F)C2)nc1CN1C(=O)O[C@H](c2cccc(OC(F)(F)F)c2)[C@@H]1C` [Example 296], the IC50 amounted to 8 nM.

On to `COc1ccc(CCC(=O)O)cc1-c1ccc(N2CC(F)(F)C2)nc1CN1C(=O)O[C@H](c2cccc(OC(F)(F)F)c2)[C@@H]1C` [Example 297], for which the IC50 was 375 nM.
